Experimental data taken from ChEMBL document CHEMBL4138146, “A Schmidt rearrangement-mediated synthesis of novel tetrahydro-benzo[1,4]diazepin-5-ones as potential anticancer and antiprotozoal agents” (Eur J Med Chem, 2017).

The compounds below were run on MDA-MB-435 (assay: Growth inhibition of human MDA-MB-435 cells assessed as cell growth at 10 uM incubated for 48 hrs by sulforhodamine B assay relative to control). Conditions: MDA-MB-435, 48 h, read-out: Activity.
Type: functional

Structure (SMILES)	growth at 10 µM [%]
CCCCOc1nc2ccccc2cc1C1CNC(=O)c2ccccc2N1 (stereo not given)	-63.8

The compounds below were run on SK-MEL-5 (assay: Growth inhibition of human SK-MEL-5 cells assessed as cell growth at 10 uM incubated for 48 hrs by sulforhodamine B assay relative to control). Conditions: SK-MEL-5, 48 h, read-out: Activity.
Type: functional

Structure (SMILES)	growth at 10 µM [%]
CCCCOc1nc2ccccc2cc1C1CNC(=O)c2ccccc2N1 (stereo not given)	15.6

What follows are compounds tested on SNB-75 (assay: Growth inhibition of human SNB75 cells assessed as cell growth at 10 uM incubated for 48 hrs by sulforhodamine B assay relative to control). Conditions: SNB-75, 48 h, read-out: Activity.
Type: functional

Structure (SMILES)	growth at 10 µM [%]
CCCCOc1nc2ccccc2cc1C1CNC(=O)c2ccccc2N1 (stereo not given)	3.14

Each compound was assayed on UACC-257 (assay: Growth inhibition of human UACC257 cells assessed as cell growth at 10 uM incubated for 48 hrs by sulforhodamine B assay relative to control). Conditions: UACC-257, 48 h, read-out: Activity.
Type: functional

Structure (SMILES)	growth at 10 µM [%]
CCCCOc1nc2ccccc2cc1C1CNC(=O)c2ccccc2N1 (stereo not given)	57.2

Each compound was assayed on MDA-MB-231 (assay: Growth inhibition of human MDA-MB-231 cells assessed as cell growth at 10 uM incubated for 48 hrs by sulforhodamine B assay relative to control). Conditions: MDA-MB-231, 48 h, read-out: Activity.
Type: functional

Structure (SMILES)	growth at 10 µM [%]
CCCCOc1nc2ccccc2cc1C1CNC(=O)c2ccccc2N1 (stereo not given)	47.5

What follows are compounds tested on DU-145 (assay: Growth inhibition of human DU145 cells assessed as cell growth at 10 uM incubated for 48 hrs by sulforhodamine B assay relative to control). Conditions: DU-145, 48 h, read-out: Activity.
Type: functional

Structure (SMILES)	growth at 10 µM [%]
CCCCOc1nc2ccccc2cc1C1CNC(=O)c2ccccc2N1 (stereo not given)	10.7

The compounds below were run on SR (assay: Growth inhibition of human SR cells assessed as cell growth at 10 uM incubated for 48 hrs by sulforhodamine B assay relative to control). Conditions: read-out: Activity.
Type: functional

Structure (SMILES)	growth at 10 µM [%]
CCCCOc1nc2ccccc2cc1C1CNC(=O)c2ccccc2N1 (stereo not given)	19.8

What follows are compounds tested on EKVX (assay: Growth inhibition of human EKVX cells assessed as cell growth at 10 uM incubated for 48 hrs by sulforhodamine B assay relative to control). Conditions: read-out: Activity.
Type: functional

Structure (SMILES)	growth at 10 µM [%]
CCCCOc1nc2ccccc2cc1C1CNC(=O)c2ccccc2N1 (stereo not given)	33

These compounds were tested on K562 (assay: Growth inhibition of human K562 cells assessed as cell growth at 10 uM incubated for 48 hrs by sulforhodamine B assay relative to control). Conditions: K562, 48 h, read-out: Activity.
Type: functional

Structure (SMILES)	growth at 10 µM [%]
CCCCOc1nc2ccccc2cc1C1CNC(=O)c2ccccc2N1 (stereo not given)	12.8

The compounds below were run on HL-60(TB) (assay: Growth inhibition of human HL-60(TB) cells assessed as cell growth at 10 uM incubated for 48 hrs by sulforhodamine B assay relative to control). Conditions: HL-60, 48 h, read-out: Activity.
Type: functional

Structure (SMILES)	growth at 10 µM [%]
CCCCOc1nc2ccccc2cc1C1CNC(=O)c2ccccc2N1 (stereo not given)	-8.72

What follows are compounds tested on Hs-578T (assay: Growth inhibition of human Hs 578T cells assessed as cell growth at 10 uM incubated for 48 hrs by sulforhodamine B assay relative to control). Conditions: read-out: Activity.
Type: functional

Structure (SMILES)	growth at 10 µM [%]
CCCCOc1nc2ccccc2cc1C1CNC(=O)c2ccccc2N1 (stereo not given)	34.1

The compounds below were run on SK-MEL-2 (assay: Growth inhibition of human SK-MEL-2 cells incubated for 48 hrs by sulforhodamine B assay). Conditions: SK-MEL-2, 48 h.
Type: functional

Structure (SMILES)	GI50 [µM]	TGI [µM]
COc1cccc2c1C(=O)c1c(O)c3c(c(O)c1C2=O)C[C@@](O)(C(=O)CO)C[C@@H]3O[C@H]1C[C@H](N)[C@H](O)[C@H](C)O1 [DOXORUBICIN]	0.21	–
CCCCOc1nc2ccccc2cc1C1CNC(=O)c2ccccc2N1 (stereo not given)	4.79	48.5

Same assay, conditions: SK-MEL-2, 48 h, read-out: LC50 (the source's name)

Structure (SMILES)	CC50 [µM]
COc1cccc2c1C(=O)c1c(O)c3c(c(O)c1C2=O)C[C@@](O)(C(=O)CO)C[C@@H]3O[C@H]1C[C@H](N)[C@H](O)[C@H](C)O1 [DOXORUBICIN]	15.9
CCCCOc1nc2ccccc2cc1C1CNC(=O)c2ccccc2N1 (stereo not given)	> 100

The compounds below were run on LOX IMVI (assay: Growth inhibition of human LOXIMVI cells assessed as cell growth at 10 uM incubated for 48 hrs by sulforhodamine B assay relative to control). Conditions: read-out: Activity.
Type: functional

Structure (SMILES)	growth at 10 µM [%]
CCCCOc1nc2ccccc2cc1C1CNC(=O)c2ccccc2N1 (stereo not given)	27.1

Each compound was assayed on HCT-15 (assay: Growth inhibition of human HCT15 cells assessed as cell growth at 10 uM incubated for 48 hrs by sulforhodamine B assay relative to control). Conditions: HCT-15, 48 h, read-out: Activity.
Type: functional

Structure (SMILES)	growth at 10 µM [%]
CCCCOc1nc2ccccc2cc1C1CNC(=O)c2ccccc2N1 (stereo not given)	15.3

These compounds were tested on IGROV-1 (assay: Growth inhibition of human IGROV1 cells assessed as cell growth at 10 uM incubated for 48 hrs by sulforhodamine B assay relative to control). Conditions: IGROV-1, 48 h, read-out: Activity.
Type: functional

Structure (SMILES)	growth at 10 µM [%]
CCCCOc1nc2ccccc2cc1C1CNC(=O)c2ccccc2N1 (stereo not given)	38

What follows are compounds tested on M14 (assay: Growth inhibition of human M14 cells assessed as cell growth at 10 uM incubated for 48 hrs by sulforhodamine B assay relative to control). Conditions: M14, 48 h, read-out: Activity.
Type: functional

Structure (SMILES)	growth at 10 µM [%]
CCCCOc1nc2ccccc2cc1C1CNC(=O)c2ccccc2N1 (stereo not given)	-23.1

The compounds below were run on NCI-H460 (assay: Growth inhibition of human NCI-H460 cells assessed as cell growth at 10 uM incubated for 48 hrs by sulforhodamine B assay relative to control). Conditions: NCI-H460, 48 h, read-out: Activity.
Type: functional

Structure (SMILES)	growth at 10 µM [%]
CCCCOc1nc2ccccc2cc1C1CNC(=O)c2ccccc2N1 (stereo not given)	6.89

These compounds were tested on SK-MEL-2 (assay: Growth inhibition of human SK-MEL-2 cells assessed as cell growth at 10 uM incubated for 48 hrs by sulforhodamine B assay relative to control). Conditions: SK-MEL-2, 48 h, read-out: Activity.
Type: functional

Structure (SMILES)	growth at 10 µM [%]
CCCCOc1nc2ccccc2cc1C1CNC(=O)c2ccccc2N1 (stereo not given)	15.7

The compounds below were run on RPMI-8226 (assay: Growth inhibition of human RPMI8226 cells assessed as cell growth at 10 uM incubated for 48 hrs by sulforhodamine B assay relative to control). Conditions: RPMI-8226, 48 h, read-out: Activity.
Type: functional

Structure (SMILES)	growth at 10 µM [%]
CCCCOc1nc2ccccc2cc1C1CNC(=O)c2ccccc2N1 (stereo not given)	25.6

The compounds below were run on 786-0 (assay: Growth inhibition of human 786-0 cells assessed as cell growth at 10 uM incubated for 48 hrs by sulforhodamine B assay relative to control). Conditions: 786-0, 48 h, read-out: Activity.
Type: functional

Structure (SMILES)	growth at 10 µM [%]
CCCCOc1nc2ccccc2cc1C1CNC(=O)c2ccccc2N1 (stereo not given)	26.2

These compounds were tested on SF-268 (assay: Growth inhibition of human SF268 cells assessed as cell growth at 10 uM incubated for 48 hrs by sulforhodamine B assay relative to control). Conditions: SF-268, 48 h, read-out: Activity.
Type: functional

Structure (SMILES)	growth at 10 µM [%]
CCCCOc1nc2ccccc2cc1C1CNC(=O)c2ccccc2N1 (stereo not given)	43.6

The compounds below were run on CAKI-1 (assay: Growth inhibition of human Caki1 cells assessed as cell growth at 10 uM incubated for 48 hrs by sulforhodamine B assay relative to control). Conditions: CAKI-1, 48 h, read-out: Activity.
Type: functional

Structure (SMILES)	growth at 10 µM [%]
CCCCOc1nc2ccccc2cc1C1CNC(=O)c2ccccc2N1 (stereo not given)	42.6

What follows are compounds tested on BT-549 (assay: Growth inhibition of human BT549 cells assessed as cell growth at 10 uM incubated for 48 hrs by sulforhodamine B assay relative to control). Conditions: BT-549, 48 h, read-out: Activity.
Type: functional

Structure (SMILES)	growth at 10 µM [%]
CCCCOc1nc2ccccc2cc1C1CNC(=O)c2ccccc2N1 (stereo not given)	41

The compounds below were run on HCC 2998 (assay: Growth inhibition of human HCC2998 cells assessed as cell growth at 10 uM incubated for 48 hrs by sulforhodamine B assay relative to control). Conditions: HCC 2998, 48 h, read-out: Activity.
Type: functional

Structure (SMILES)	growth at 10 µM [%]
CCCCOc1nc2ccccc2cc1C1CNC(=O)c2ccccc2N1 (stereo not given)	56.5

The compounds below were run on PC-3 (assay: Growth inhibition of human PC3 cells assessed as cell growth at 10 uM incubated for 48 hrs by sulforhodamine B assay relative to control). Conditions: PC-3, 48 h, read-out: Activity.
Type: functional

Structure (SMILES)	growth at 10 µM [%]
CCCCOc1nc2ccccc2cc1C1CNC(=O)c2ccccc2N1 (stereo not given)	24.7

What follows are compounds tested on SF-295 (assay: Growth inhibition of human SF295 cells assessed as cell growth at 10 uM incubated for 48 hrs by sulforhodamine B assay relative to control). Conditions: SF-295, 48 h, read-out: Activity.
Type: functional

Structure (SMILES)	growth at 10 µM [%]
CCCCOc1nc2ccccc2cc1C1CNC(=O)c2ccccc2N1 (stereo not given)	-5.68

These compounds were tested on SNB-19 (assay: Growth inhibition of human SNB19 cells incubated for 48 hrs by sulforhodamine B assay). Conditions: SNB-19, 48 h.
Type: functional

Structure (SMILES)	GI50 [µM]	TGI [µM]
COc1cccc2c1C(=O)c1c(O)c3c(c(O)c1C2=O)C[C@@](O)(C(=O)CO)C[C@@H]3O[C@H]1C[C@H](N)[C@H](O)[C@H](C)O1 [DOXORUBICIN]	0.04	–
CCCCOc1nc2ccccc2cc1C1CNC(=O)c2ccccc2N1 (stereo not given)	6.13	75.3

Same assay, conditions: SNB-19, 48 h, read-out: LC50 (the source's name)

Structure (SMILES)	CC50 [µM]
CCCCOc1nc2ccccc2cc1C1CNC(=O)c2ccccc2N1 (stereo not given)	> 100

Each compound was assayed on MCF7 (assay: Growth inhibition of human MCF7 cells assessed as cell growth at 10 uM incubated for 48 hrs by sulforhodamine B assay relative to control). Conditions: MCF7, 48 h, read-out: Activity.
Type: functional

Structure (SMILES)	growth at 10 µM [%]
CCCCOc1nc2ccccc2cc1C1CNC(=O)c2ccccc2N1 (stereo not given)	21.2
